Like-named read-outs stand apart in the source and are kept apart here.
Tests used:
[1] = tested on: Hela cells; assay: Cell cycle analysis (propidium iodide, flow cytometry); format: cell-based, human; details: 24 h
Procedure: Cell cycle analysis was carried out as established in our laboratory ([Su, Cheng & Wink, 2015]). Briefly, Hela cells (5 × 10^5) were seeded in 6-well-plates and treated with different concentrations of cucurbitacins for 24 h. Cells were then collected, centrifuged and fixed in 70% ice-cold ethanol for at least 8 h. After washing steps, cells were treated with 0.2 mg/ml RNase A for 30 min at 37 C and then stained with 0.1 mg/ml propidium iodide. Samples were analyzed using a FACScan flow cytometer (Becton Dickinson, Heidelberg, Germany). Data were analyzed using Cell Quest™ Pro software (Becton Dickinson) and Microsoft excel (Microsoft Corporation, Washington, USA).

[2] = tested on: MCF-7 cells; assay: MTT assay (cytotoxicity), MCF-7; format: cell-based, human
Procedure: (§1) The anti-proliferative effects of cucurbitacins were assessed using MTT assay, as previously described ([Nurcahyanti & Wink, 2015]). In brief, cells (1 × 10^4) were seeded in 96-well plates and incubated with different concentrations of cucurbitacins for 48 h (Hela, U2OS) and 72 h (MCF-7). MTT solution was then added and incubated for 2 h. The plates were read at 570 nm after the addition of DMSO using Tecan infinite M200 Pro (Tecan, Crailsheim, Germany).
(§2) All experiments were done in triplicate, repeated three times. Data are presented as mean ± standard deviation (SD). Statistical comparison between controls and different treatments were performed by an unpaired student’s t test using Microsoft excel 2013 (Microsoft Corporation, Washington, USA). Significance was considered at p < 0.05.

[3] = tested on: Hela, MCF-7 and U2OS cells; assay: MTT assay, summary over three cell lines; format: cell-based; details: Homo sapiens; range over Hela, MCF-7, U2OS and over the three cucurbitacins
Procedure: as §1, §2

[4] = molecular target: T1, Porcine brain tubulin plus MAPs (Sus scrofa, UniProt P02550+P02554); assay: In vitro tubulin polymerization assay; format: biochemical; details: for effect on tubulin assembly in vitro at 1 mM: Figure 4D
T1 construct: Porcine brain tubulin plus MAPs was prepared by two cycles of polymerization and depolymerization; from tissue; host or cells: porcine brain
T1 sequence (P02550 whole entry): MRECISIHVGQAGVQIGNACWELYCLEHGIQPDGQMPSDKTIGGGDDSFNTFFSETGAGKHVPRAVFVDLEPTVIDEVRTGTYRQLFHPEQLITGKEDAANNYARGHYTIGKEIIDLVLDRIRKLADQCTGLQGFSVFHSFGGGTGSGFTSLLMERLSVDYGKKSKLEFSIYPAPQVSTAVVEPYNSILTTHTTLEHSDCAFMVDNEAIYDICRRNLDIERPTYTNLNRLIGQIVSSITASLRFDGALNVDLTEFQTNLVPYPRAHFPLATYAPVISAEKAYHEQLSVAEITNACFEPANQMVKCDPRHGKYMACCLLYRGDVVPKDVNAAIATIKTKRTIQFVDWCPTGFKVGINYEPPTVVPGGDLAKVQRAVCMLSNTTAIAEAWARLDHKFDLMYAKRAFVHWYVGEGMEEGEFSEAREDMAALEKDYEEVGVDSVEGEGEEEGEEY
T1 sequence (P02554 whole entry): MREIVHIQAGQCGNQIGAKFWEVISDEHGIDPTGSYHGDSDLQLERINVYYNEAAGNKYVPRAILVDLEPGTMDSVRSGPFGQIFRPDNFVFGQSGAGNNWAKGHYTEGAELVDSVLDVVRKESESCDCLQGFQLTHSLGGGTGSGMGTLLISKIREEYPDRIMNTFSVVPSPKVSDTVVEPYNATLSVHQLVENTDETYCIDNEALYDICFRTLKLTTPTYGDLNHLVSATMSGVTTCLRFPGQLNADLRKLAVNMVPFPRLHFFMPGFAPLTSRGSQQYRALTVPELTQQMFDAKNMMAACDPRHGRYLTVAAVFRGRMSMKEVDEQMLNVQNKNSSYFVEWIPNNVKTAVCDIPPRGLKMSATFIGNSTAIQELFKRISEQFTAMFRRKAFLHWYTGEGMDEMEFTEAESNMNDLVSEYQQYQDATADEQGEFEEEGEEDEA
Procedure: Porcine brain tubulin plus MAPs was prepared by two cycles of polymerization and depolymerization according to a standard protocol ([Gell et al., 2011]). In-vitro tubulin polymerization assays were carried out in PEM buffer (100 mM PIPES, 2 mM EGTA, 0.1 mM EDTA, 3 mM MgCl2, 1 mM ATP and 1 mM GTP, pH 6.85) by mixing 5.6 mg/ml tubulin-MAPs with different concentrations of cucurbitacins in 96-well plates at 37°C for 40 min. The rate and extent of the polymerization reaction were monitored by light scattering at 360 nm using Tecan infinite M200 Pro.
as §2

[5] = tested on: mitotic spindles in Hela cells; assay: Immunofluorescence staining, mitotic spindles; format: cell-based, human; details: Hela metaphase cells, 24 h, IC50
Procedure: The immunofluorescence staining was carried out as established in our laboratory ([Wang et al., 2016a]).

[6] = tested on: Hela cells; assay: MTT assay (cytotoxicity), Hela; format: cell-based, human; details: 48 h; for IC80: 80% reduction of cell viability
Procedure: as §1, §2

[7] = tested on: U2OS cells; assay: MTT assay (cytotoxicity), U2OS; format: cell-based, human; details: 48 h
Procedure: as §1, §2

[8] = molecular target: T1, Porcine brain tubulin plus MAPs
[9] = tested on: microtubule network in α-tubulin-GFP U2OS cells; assay: Imaging of tubulin-GFP transfected U2OS cells; format: cell-based, human; details: IC80 and IC50, 2-48 h
Procedure: Cells were imaged using a Keyence BZ-9000 microscope (Keyence; Neu-Isenburg, Germany) after incubation for 2 h, 4 h, 24 h and 48 h. The images were analyzed using BZ-II Analyzer software (version 2.1, Keyence; Neu-Isenburg, Germany).

[10] = tested on: cellular actin filaments in actin-RFP Hela cells; details: ref Wang et al. (2016a); cited from earlier work
[11] = tested on: U2OS cells; details: MTT, 48 h; ref Wang et al. (2016a); cited from earlier work
[12] = tested on: MCF-7 cells; details: MTT, 72 h; ref Wang et al. (2016a); cited from earlier work
[13] = tested on: mitotic spindles in Hela cells; details: Hela metaphase cells, 24 h, IC50; ref Wang et al. (2016a); cited from earlier work
[14] = tested on: Hela cells; details: MTT, 48 h; ref Wang et al. (2016a); cited from earlier work
[15] = tested on: Hela cells; details: 24 h, ref Wang et al. (2016a), cited from earlier work
[16] = tested on: actin filaments in Hela cells; details: cited from earlier work
[17] = tested on: microtubule network in α-tubulin-GFP U2OS cells; details: cited from earlier work
[18] = 1 h and 24 h, ref Wang et al. (2016a)

Compound	effect on cell cycle [1]	IC50 ([2]; Homo sapiens, MCF7, 72 h) [µM]	IC80 ([2]; Homo sapiens, MCF7, 72 h) [µM]	IC50 [3] [µM]	IC50 [4] [µM]	effect on tubulin assembly in vitro [4]	effect on tubulin assembly in vitro at 1 mM [4]	effect on mitotic spindles [5]	IC50 ([6]; Homo sapiens, HeLa) [µM]	IC80 ([6]; Homo sapiens, HeLa) [µM]	IC50 ([7]; Homo sapiens, U2OS) [µM]	IC80 ([7]; Homo sapiens, U2OS) [µM]	effect on cellular microtubule network [9]	effect on cellular actin filaments (actin-RFP) [10]	IC80 [11] [µM]	IC80 [12] [µM]	effect on mitotic spindles [13]	IC80 [14] [µM]	effect on cell cycle [15]	effect on actin filaments (immunofluorescence) [16, 18]	also measured
CC(C)(O)/C=C/C(=O)[C@](C)(O)[C@H]1[C@H](O)C[C@@]2(C)[C@@H]3CC=C4[C@@H](C=C(O)C(=O)C4(C)C)[C@]3(C)C(=O)C[C@]12C [Cucurbitacin I, cucurbitacin I]	potential ability to arrest cell cycle at G2/M phase	0.0647 ± 0.0143	0.29 ± 0.08	0.00643 to 0.0647	> 1000	did not affect the tubulin assembly in vitro	did not affect the assembly	multipolar spindles and chromosomes mis-segregation on the metaphase plate	0.0448 ± 0.00154	0.0555 ± 0.00363	0.0235 ± 0.0169	0.034 ± 0.0177									G2/M population ([1]; 0.6μM): 59.18 ± 7.2%
cucurbitacin B	potential ability to arrest cell cycle at G2/M phase					did not affect the tubulin assembly in vitro	did not affect the assembly	disordered distribution of spindle array					changed the morphology of microtubule network into half-stretching state after 2 h incubation then round state after 24 h incubation								effect on tubulin polymerization in vitro ([8]; same assay; ref Duangmano et al. (2012); cited from earlier work): did not affect tubulin polymerization in vitro; IC50 ([2]; 72 h): 0.0229 ± 0.00451 µM; IC80 ([2]; 72 h): 0.0437 ± 0.0106 µM; IC50 [6]: 0.0122 ± 0.00142 µM; IC80 [6]: 0.022 ± 0.00139 µM; IC50 [7]: 0.0171 ± 0.00455 µM; IC80 [7]: 0.0281 ± 0.0152 µM
COc1cc2c(c(OC)c1OC)-c1ccc(OC)c(=O)cc1[C@@H](NC(C)=O)CC2 [Colchicine, colchicine]														No notable changes on actin filaments	0.87 ± 1.46	0.0799 ± 0.0409	completely depolymerized spindle with the compacted chromosomes	0.027 ± 0.00748	dose-dependent G2/M cell cycle arrest	No apparent changes on actin filaments	G2/M population ([15]; 0.1μM): 89.66 ± 2.04%
CC(=O)OC(C)(C)/C=C/C(=O)[C@](C)(O)[C@H]1[C@H](O)C[C@@]2(C)[C@@H]3CC=C4[C@@H](C=C(O)C(=O)C4(C)C)[C@]3(C)C(=O)C[C@]12C [Cucurbitacin E, cucurbitacin E]	potential ability to arrest cell cycle at G2/M phase	0.054 ± 0.00316	0.92 ± 0.2	0.00643 to 0.0647	567 ± 113			disordered distribution of spindle array	0.00643 ± 0.00105	0.0151 ± 0.00267	0.0151 ± 0.00451	0.0263 ± 0.0185	changed the morphology of microtubule network into half-stretching state after 2 h incubation then round state after 24 h incubation								G2/M population ([1]; 0.3μM): 59.35 ± 5.69%; effect on phases of microtubule assembly (nucleation, growth, steady state) [4]: did not affect the nucleation but inhibited the growth phase and steady state
C/C1=C/C(=O)O[C@@H]2C[C@@H](CC[C@H](C)/C=C\CC1)O[C@@](O)([C@@H]1CSC(=O)N1)C2 [Latrunculin B, latrunculin B]														actin cytoskeleton significantly disrupted	37.2 ± 15.7	140 ± 6.58	did not alter mitotic spindles and chromosome arrangements	63.9 ± 5.68	dose-dependent G2/M cell cycle arrest	actin cytoskeleton extensively disrupted	IC50 ([8]; read-out: IC50, inhibition of tubulin polymerization in vitro; 5.6 mg/ml tubulin-MAPs, 37°C, 40 min; ref Wang et al. (2016a); cited from earlier work): > 1000 µM; IC50 [11]: 5.67 ± 0.59 µM; IC50 [12]: 38.5 ± 1.7 µM; effect on cellular microtubule network ([17]; both concentrations (IC80, IC50), ref Wang et al. (2016a)): changed the cell morphology from stretching state into round state; IC50 [14]: 11.2 ± 1.27 µM
CC[C@]1(O)C[C@@H]2CN(CCc3c([nH]c4ccccc34)[C@@](C(=O)OC)(c3cc4c(cc3OC)N(C)[C@H]3[C@@](O)(C(=O)OC)[C@H](OC(C)=O)[C@]5(CC)C=CCN6CC[C@]43[C@@H]65)C2)C1 [Vinblastine, vinblastine]														No notable changes on actin filaments	1.15 ± 0.51	2.08 ± 0.92	depolymerized bipolar spindles	0.7 ± 0.34	dose-dependent G2/M cell cycle arrest		IC50 ([8]; 5.6 mg/ml tubulin-MAPs, 37°C, 40 min; ref Wang et al. (2016a); read-out: IC50, inhibition of tubulin polymerization in vitro; cited from earlier work): 1.57 ± 0.34 µM; effect on phases of microtubule assembly (nucleation, growth, steady state) ([8]; ref Wang et al. (2016a); cited from earlier work): inhibited the nucleation and growth phase during the assembly; IC50 [11]: 0.00011 ± 7e-05 µM; IC50 [12]: 6e-05 ± 5e-05 µM; effect on cellular microtubule network ([17]; concentration of IC50, ref Wang et al. (2016a)): extensively depolymerized microtubules; effect on cellular microtubule network ([17]; concentration of IC80, ref Wang et al. (2016a)): tubulin paracrystals were formed and dispersed through out the cytoplasm; IC50 [14]: 2e-05 ± 1e-05 µM; G2/M population ([15]; 10 nM): 78.04 ± 14.78%; effect on actin filaments (immunofluorescence) ([16]; 24 h, concentration of IC80, ref Wang et al. (2016a)): slight reduction of actin filament mass

Source: paper PMC5452965 (PeerJ, 2017)
